Among the test systems are NCI-H23; 786-0; SF-539; RPMI-8226; SR; EKVX; DU-145; RXF 393; UO-31; SK-MEL-2; SNB-75; HCT-15; OVCAR-3; SW-620; UACC-62; MDA-N; SF-295; Malme-3M; MDA-MB-435; HCC 2998.
Common to all, as to experiment: DTP human tumour cell line panel, 48 h

Molecules are shown by their SMILES.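 Tested at 5 concentrations; 48 h exposure; 96-well plates; endpoints linearly interpolated, else capped at highest concentration. At the GI50, growth is halved.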 Calls of active or inactive are those of the source. No stated cut-off is given here; in the data, active = GI50 up to about 1.1 µM and inactive = higher.

Take `CC(C)(N)C(=O)N[C@@H]1C(=O)N2[C@@H]1SC(C)(C)[C@@H]2C(=O)O`: the GI50 in the test with NCI-H23, with 786-0, with SF-539, in the test with RPMI-8226, in the test on SR and in the test with EKVX was > 100 µM (inactive) throughout. For the same compound, the GI50 (in general, the concentration that inhibits growth by half) in the test on DU-145 was > 100 µM (inactive); with RXF 393, > 100 µM (inactive); in the test on UO-31 it was > 100 µM (inactive); with SK-MEL-2, > 100 µM (inactive); with SNB-75, > 100 µM (inactive); with HCT-15, more than 100 µM. Also, the GI50 with OVCAR-3, in the test on SW-620, in the test with UACC-62, in the test with MDA-N, in the test with SF-295 and in the test on Malme-3M was > 100 µM (inactive) in each case. The GI50 with MDA-MB-435 was > 100 µM (inactive).
Consider `O=C(O)c1cccc(SSc2cccc(C(=O)O)c2)c1`, for which the GI50 in the test with NCI-H23, in the test with 786-0, in the test with SF-539, in the test on RPMI-8226, in the test on SR and in the test with EKVX was > 100 µM (inactive) each time. In addition, the GI50 in the test on DU-145 is > 100 µM (inactive); with RXF 393, > 100 µM (inactive); with UO-31, > 100 µM (inactive); in the test with SK-MEL-2 it was > 100 µM (inactive); with SNB-75, > 100 µM (inactive); in the test with HCT-15 it was more than 100 µM. Further, the GI50 with OVCAR-3, with SW-620, with UACC-62, with MDA-N, with SF-295 and with Malme-3M was > 100 µM (inactive) throughout. The GI50 with MDA-MB-435 was > 100 µM (inactive).
In the case of `COc1ccc(N2C(=O)C(=O)C3(CCCCC3)C2=O)c(OC)c1OC`, the GI50 in the test on NCI-H23, with 786-0, with SF-539, with RPMI-8226, in the test with SR and in the test on EKVX was > 100 µM (inactive) throughout. The GI50 is > 100 µM (inactive) in the test on DU-145; > 100 µM (inactive) with RXF 393; > 100 µM (inactive) in the test on UO-31; > 100 µM (inactive) with SNB-75; more than 100 µM in the test on HCT-15; > 100 µM (inactive) in the test on OVCAR-3. In addition, the GI50 in the test with SW-620, in the test with UACC-62, with MDA-N, in the test with SF-295, with Malme-3M and with MDA-MB-435 was > 100 µM (inactive) in each case.
Regarding `CCOC(=O)C1=CNC(C(=O)OCC)C1c1cccn1-c1ccc(Cl)cc1[N+](=O)[O-]` (configuration not stated), the GI50 in the test on NCI-H23 is 36.6 µM (inactive); with 786-0 it was 19.1 µM (inactive); in the test on SF-539, 16.6 µM (inactive); in the test on SR it was 25.7 µM (inactive); in the test on EKVX it was 17.9 µM (inactive); with DU-145, 29.5 µM (inactive). Moreover, the GI50 in the test with RXF 393 was 14.6 µM (inactive); in the test with HCC 2998, 16.3 µM (inactive); in the test on UO-31 it was 22.9 µM (inactive); in the test on SK-MEL-2, 15.4 µM (inactive); in the test with SNB-75, 17.4 µM (inactive); in the test on HCT-15, 21.5 µM. Also, the GI50 in the test on OVCAR-3 was 10.6 µM (inactive); with SW-620 it was 27.9 µM (inactive); in the test on UACC-62 it was 15.7 µM (inactive); in the test on MDA-N it was 22 µM (inactive); in the test on SF-295 it was 16.4 µM (inactive); in the test with MDA-MB-435, 21.5 µM (inactive).
As for `Cc1oc2ccccc2c(=O)c1Cn1nnc2ccccc21`, the GI50 in the test on NCI-H23 is > 100 µM (inactive); in the test on 786-0 it was > 100 µM (inactive); in the test on SF-539, > 100 µM (inactive); with RPMI-8226 it was 35.7 µM (inactive); in the test with SR, 35.9 µM (inactive); in the test with EKVX, > 100 µM (inactive). In addition, the GI50 is 25.5 µM (inactive) in the test on DU-145; > 100 µM (inactive) in the test on HCC 2998; 47.3 µM (inactive) in the test with UO-31; > 100 µM (inactive) with SK-MEL-2; 45.6 µM (inactive) in the test on SNB-75; 96.2 µM in the test with HCT-15. The GI50 with OVCAR-3 is 30.6 µM (inactive); with SW-620, > 100 µM (inactive); with UACC-62, 41.7 µM (inactive); in the test with MDA-N it was 39.4 µM (inactive); in the test with SF-295, > 100 µM (inactive); with Malme-3M it was > 100 µM (inactive). Besides, the GI50 with MDA-MB-435 was 41.3 µM (inactive).
For the compound `O=C1CCCCC/C1=C\c1ccc(F)cc1`, the GI50 is > 100 µM (inactive) in the test on NCI-H23; > 100 µM (inactive) with 786-0; 45.2 µM (inactive) in the test on RPMI-8226; 47.6 µM (inactive) in the test with SR; > 100 µM (inactive) with EKVX; > 100 µM (inactive) in the test with DU-145. Besides, the GI50 with HCC 2998 was > 100 µM (inactive); with UO-31, 42.4 µM (inactive); with SK-MEL-2, > 100 µM (inactive); in the test with SNB-75 it was > 100 µM (inactive); with HCT-15, more than 100 µM; with OVCAR-3 it was > 100 µM (inactive). For the same compound, the GI50 in the test on SW-620 is > 100 µM (inactive); in the test with UACC-62, 40.3 µM (inactive); in the test with MDA-N, > 100 µM (inactive); in the test on SF-295 it was > 100 µM (inactive); with Malme-3M, > 100 µM (inactive); in the test on MDA-MB-435, 74.1 µM (inactive).
On to `NC(=O)NC(=O)c1cccc(NC(=O)CBr)c1`, for which the GI50 is < 0.0195 µM (active) in the test on NCI-H23; < 0.01 µM (active) with 786-0; < 0.0362 µM (active) with SF-539; < 0.0141 µM (active) with RPMI-8226; < 0.01 µM (active) in the test on SR; 0.766 µM (active) in the test with EKVX. The GI50 in the test on DU-145 is < 0.022 µM (active); with RXF 393, < 0.019 µM (active); in the test on HCC 2998, 0.282 µM (active); with UO-31, 0.209 µM (active); with SK-MEL-2, 0.0286 µM (active); with HCT-15, less than 0.0161 µM. The concentration for 50% growth inhibition (GI50) is < 0.01 µM (active) in the test with OVCAR-3; < 0.01 µM (active) with SW-620; < 0.0175 µM (active) in the test on UACC-62; < 0.0134 µM (active) in the test on MDA-N; 0.197 µM (active) in the test with SF-295; < 0.0143 µM (active) with MDA-MB-435.
As for `Cc1cc(C)nc(NS(=O)(=O)c2ccc(Nc3c4ccccc4nc4c(C(=O)NCCCN(CCO)CCO)cccc34)cc2)n1`, the GI50 in the test with NCI-H23 is 29.4 µM (inactive); in the test with 786-0, > 10 µM (inactive); in the test on RPMI-8226, 9.38 µM (inactive); in the test with SR it was 9.75 µM (inactive); in the test with EKVX, 36.6 µM (inactive); in the test with DU-145, 41.6 µM (inactive). Besides, the GI50 is 16.7 µM (inactive) in the test on HCC 2998; 42 µM (inactive) with UO-31; 14.2 µM (inactive) in the test with SK-MEL-2; 3.35 µM (inactive) in the test on SNB-75; 49.2 µM in the test with HCT-15; 30.1 µM (inactive) with OVCAR-3. The GI50 was 8.36 µM (inactive) in the test with SW-620; 14 µM (inactive) in the test with UACC-62; 17.7 µM (inactive) in the test on MDA-N; 27.4 µM (inactive) with SF-295; 15.4 µM (inactive) with Malme-3M; 16 µM (inactive) in the test on MDA-MB-435.
Regarding `ClC(Cl)(Cl)C1CCOC1n1nc2ccccc2n1` (configuration not stated), the GI50 in the test with NCI-H23, in the test on 786-0, in the test with SF-539, in the test on SR, in the test on EKVX and in the test with DU-145 was > 100 µM (inactive) in each case. The GI50 is > 100 µM (inactive) in the test with RXF 393; > 100 µM (inactive) with HCC 2998; > 100 µM (inactive) in the test on SK-MEL-2; 28.2 µM (inactive) with SNB-75; more than 100 µM with HCT-15; > 100 µM (inactive) in the test on OVCAR-3. Also, the GI50 with UACC-62, in the test with MDA-N, with SF-295, with Malme-3M and in the test with MDA-MB-435 was > 100 µM (inactive) in each case.
As for `COc1ccc(-n2sc3ncc([N+](=O)[O-])cc3c2=O)cc1`, the GI50 in the test on NCI-H23, in the test on 786-0, in the test with SF-539, in the test on RPMI-8226, in the test on SR and in the test with EKVX was > 100 µM (inactive) in each case. Moreover, the GI50 with DU-145 is > 100 µM (inactive); in the test with HCC 2998, > 100 µM (inactive); with UO-31 it was > 100 µM (inactive); in the test with SK-MEL-2, > 100 µM (inactive); in the test with SNB-75, > 100 µM (inactive); in the test on HCT-15 it was more than 100 µM. In addition, the GI50 in the test with OVCAR-3, in the test with SW-620, in the test with UACC-62, in the test on MDA-N, in the test with SF-295 and with Malme-3M was > 100 µM (inactive) each time. In addition, the GI50 in the test on MDA-MB-435 was > 100 µM (inactive).
For the compound `O=S(=O)(/N=C(\NO)Nc1ccc(Cl)cc1)C1CC=C(c2ccon2)S1` (configuration not stated), the GI50 in the test with NCI-H23 is 13.2 µM (inactive); in the test on 786-0, 2.88 µM (inactive); in the test on SF-539, 1.2 µM (inactive); in the test on RPMI-8226, 6.07 µM (inactive); in the test with SR, 2.3 µM (inactive); with EKVX, 31 µM (inactive). For the same compound, the GI50 with DU-145 was 55.3 µM (inactive); with RXF 393 it was 6.31 µM (inactive); with HCC 2998 it was 15.3 µM (inactive); in the test on UO-31 it was 9.55 µM (inactive); in the test on SK-MEL-2, 13.3 µM (inactive); in the test on HCT-15, 15.5 µM. For the same compound, the GI50 in the test on OVCAR-3 is 22.5 µM (inactive); in the test with SW-620, 5.78 µM (inactive); in the test with UACC-62 it was 24.5 µM (inactive); in the test with MDA-N, 6.04 µM (inactive); in the test with SF-295 it was 40.7 µM (inactive); with Malme-3M, 1.55 µM (inactive). Moreover, the GI50 in the test on MDA-MB-435 is 8.91 µM (inactive).

(Values after ChEMBL document CHEMBL1201862, “PubChem BioAssay data set” (2004).)
